Legend:
BCRP [1] = biological target: T1, BCRP (Homo sapiens, UniProt Q9UNQ0); conditions: AZT 1 μM, 120 min
T1 sequence (Q9UNQ0 1-655): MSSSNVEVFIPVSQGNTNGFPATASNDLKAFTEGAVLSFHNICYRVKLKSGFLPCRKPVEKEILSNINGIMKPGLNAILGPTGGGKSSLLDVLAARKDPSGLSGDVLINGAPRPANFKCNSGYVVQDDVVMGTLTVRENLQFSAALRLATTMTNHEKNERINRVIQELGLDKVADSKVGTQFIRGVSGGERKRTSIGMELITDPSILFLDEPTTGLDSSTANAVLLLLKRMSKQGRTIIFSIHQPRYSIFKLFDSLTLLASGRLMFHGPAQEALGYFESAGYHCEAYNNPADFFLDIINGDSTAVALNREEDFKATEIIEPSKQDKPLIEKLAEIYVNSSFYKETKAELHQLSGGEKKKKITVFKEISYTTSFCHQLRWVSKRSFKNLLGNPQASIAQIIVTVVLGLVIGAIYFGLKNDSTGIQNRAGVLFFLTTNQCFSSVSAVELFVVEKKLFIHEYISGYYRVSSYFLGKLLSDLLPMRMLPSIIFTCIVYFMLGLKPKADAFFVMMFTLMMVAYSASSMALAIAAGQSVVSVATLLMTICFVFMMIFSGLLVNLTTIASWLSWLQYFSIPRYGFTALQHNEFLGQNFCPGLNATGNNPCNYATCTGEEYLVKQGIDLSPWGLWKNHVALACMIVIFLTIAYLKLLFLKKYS

SO and BDL rats = test: Y-maze test during AZT treatment; type: in vivo, rat
BCRP [2] = biological target: BCRP (Homo sapiens, UniProt Q9UNQ0); conditions: HCMEC/D3 cells, siRNA for human ABCG2 vs CON
[3] = cited from earlier work
brain BCRP = biological target: T2, brain BCRP (Rattus norvegicus, UniProt Q80W57); conditions: normal rats
T2 sequence (Q80W57 1-657): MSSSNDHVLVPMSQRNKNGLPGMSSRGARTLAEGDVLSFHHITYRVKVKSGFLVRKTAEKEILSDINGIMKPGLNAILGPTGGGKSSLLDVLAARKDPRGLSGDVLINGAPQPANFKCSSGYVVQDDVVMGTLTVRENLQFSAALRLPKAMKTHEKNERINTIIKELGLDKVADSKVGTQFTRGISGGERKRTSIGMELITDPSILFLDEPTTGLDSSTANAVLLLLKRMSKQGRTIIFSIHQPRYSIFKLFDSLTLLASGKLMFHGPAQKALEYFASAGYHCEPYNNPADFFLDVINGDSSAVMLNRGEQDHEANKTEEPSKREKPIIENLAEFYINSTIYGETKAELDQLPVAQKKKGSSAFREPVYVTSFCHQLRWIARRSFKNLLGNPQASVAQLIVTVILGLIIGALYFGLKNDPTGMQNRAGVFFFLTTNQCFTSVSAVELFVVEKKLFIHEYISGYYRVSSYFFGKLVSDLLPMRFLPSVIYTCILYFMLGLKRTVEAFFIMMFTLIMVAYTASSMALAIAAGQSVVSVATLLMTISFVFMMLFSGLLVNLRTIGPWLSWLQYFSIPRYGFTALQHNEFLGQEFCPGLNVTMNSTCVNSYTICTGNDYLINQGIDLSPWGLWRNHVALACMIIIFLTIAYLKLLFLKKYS

BCRP [4] = biological target: T1, BCRP; conditions: not told; cited from earlier work
MDCKII-WT cells = test: Uptake of AZT in MDCKII-WT cells; type: in vitro ADME, canine; conditions: wild-type MDCKII cells, AZT 1 μM, 120 min

Compound: Cc1cn([C@H]2C[C@H](N=[N+]=[N-])[C@@H](CO)O2)c(=O)[nH]c1=O [AZT, Zidovudine]
- uptake of AZT in MDCKII-BCRP cells, % of that in MDCKII-WT cells (BCRP [1]): approximately 50.0%
- Y-maze percentage of alternation of arm entrance (SO and BDL rats; BDL rats treated with AZT 100 mg/kg every day i.v. compared with SO rats): significantly decreased
- Y-maze total number of entries, effect of AZT treatment (SO and BDL rats; BDL rats, AZT 100 mg/kg every day i.v., day 5 of treatment): further enhanced by AZT treatment, but the difference was not significant
- impairment of cognitive function by AZT (SO and BDL rats; SO rats, AZT 100 mg/kg every day i.v., Y-maze and shuttle box): did not occur
- uptake of AZT after BCRP siRNA knockdown (BCRP [2]): significantly increased
- plasma protein binding [3]: 10%

Compound: CO[C@@H]1[C@@H](OC(N)=O)[C@@H](O)[C@H](Oc2ccc3c(O)c(NC(=O)c4ccc(O)c(CC=C(C)C)c4)c(=O)oc3c2C)OC1(C)C [novobiocin]
- increase in Kin of AZT with novobiocin (brain BCRP; cortex, AZT 25 μM + novobiocin 200 μM, 2 min perfusion): not significant

Compound: CC(C)(C)NC(=O)[C@@H]1C[C@@H]2CCCC[C@@H]2CN1C[C@@H](O)[C@H](Cc1ccccc1)NC(=O)[C@H](CC(N)=O)NC(=O)c1ccc2ccccc2n1 [saquinavir]
- efflux by BCRP (BCRP [4]): BCRP also mediates the efflux

Compound: Ko143
- effect of incubation with Ko143 on uptake of AZT (MDCKII-WT cells): did not affect
- effect of coadministration of Ko143 on influx of AZT into the hippocampus (brain BCRP): markedly increased

From article PMC7470810 (Acta Pharmacologica Sinica, 2019)
